Data as given in patent publication US20240132484A1, “BROAD SPECTRUM ANTIVIRAL COMPOUNDS TARGETING THE SKI COMPLEX” (priority 2020, published 2024).
Several values for one entry are separate records, joined by “and”; a condition that tells them apart may be missing. Equal entries are not always repeated. Where two headings read alike, the source gives them in different places.

What was measured:
cells (nuclei count) = conditions: for Relative cell count to DMSO controls, Average 1 μM / Relative cell count to DMSO controls, Average 5 μM / Relative cell count to DMSO controls, Average 10 μM / Relative cell count to DMSO controls, Average 25 μM / Relative cell count to DMSO controls, Average 50 μM: toxicity data, 100=DMSO control; for Toxicity Data, Average, Mean percentage relative to DMSO control: Average of Exp 1 (SMW491) and Exp 2 (SMW492); for Relative cell count to DMSO controls, Average (for correlation analysis): average value over the 5 tested concentrations (1 to 50 uM); for Toxicity Data, Average, Mean (percentage relative to appropriate DMSO control): average of Exp 1 and Exp 2, n=4; for Toxicity Data, Percentage Relative to Appropriate DMSO Control: single well
SARS2 = type: cell-based, SARS-CoV-2; conditions: for Percentage Infection Relative to Appropriate DMSO Control with Avg Background Subtraction: Nunc Celigo plates; for Percentage Inhibition Average 1 μM / Screening data (Relative infection to DMSO controls) Average 1 μM: SARS2, 1 μM; for Screening data (Relative infection to DMSO controls) Average 1 μM / Screening data (Relative infection to DMSO controls) Average 5 μM / Screening data (Relative infection to DMSO controls) Average 10 μM / Screening data (Relative infection to DMSO controls) Average 25 μM / Screening data (Relative infection to DMSO controls) Average 50 μM / Average (relative infection to DMSO over the 5 tested concentrations): 100=DMSO control; for Percentage Inhibition Average 5 μM / Screening data (Relative infection to DMSO controls) Average 5 μM: SARS2, 5 μM; for Percentage Inhibition Average 10 μM / Screening data (Relative infection to DMSO controls) Average 10 μM: SARS2, 10 μM; for Percentage Inhibition Average 25 μM / Screening data (Relative infection to DMSO controls) Average 25 μM: SARS2, 25 μM; for Percentage Inhibition Average 50 μM / Screening data (Relative infection to DMSO controls) Average 50 μM: SARS2, 50 μM; for Average (relative infection to DMSO over the 5 tested concentrations): SARS2, average over 1 to 50 uM; for Infection Data, Average, Mean: average of Exp 1-2 (SMW491, SMW492); for Infection Data, Average, Mean percentage infection relative to DMSO control: Average of Exp 1 (SMW506) and Exp 2 (SMW507); for Infection Data, Percentage Infection Relative to Appropriate DMSO Control: single well, avg background subtraction

Structure (SMILES): CN(C)CCCN(Cc1cccs1)C(=O)c1cccs1 [SILCS40]
- Relative cell count to DMSO controls, Average 1 μM (cells (nuclei count)): 86.49
- Relative cell count to DMSO controls, Average 5 μM (cells (nuclei count)): 96.33
- Relative cell count to DMSO controls, Average 10 μM (cells (nuclei count)): 92.49
- Relative cell count to DMSO controls, Average 25 μM (cells (nuclei count)): 83.93
- Relative cell count to DMSO controls, Average 50 μM (cells (nuclei count)): 117.52
- Toxicity Data, Average, Mean percentage relative to DMSO control (cells (nuclei count); n=4, 1 uM): 86.49%
- Toxicity Data, Average, Mean percentage relative to DMSO control (cells (nuclei count); n=4, 5 uM): 96.33%
- Toxicity Data, Average, Mean percentage relative to DMSO control (cells (nuclei count); n=4, 10 uM): 92.49%
- Toxicity Data, Average, Mean percentage relative to DMSO control (cells (nuclei count); n=4, 25 uM): 83.93%
- Toxicity Data, Average, Mean percentage relative to DMSO control (cells (nuclei count); n=4, 50 uM): 117.52%
- Relative cell count to DMSO controls, Average (for correlation analysis) (cells (nuclei count)): 95.35
- SARS2 antiviral activity (SARS2): inactive
- Percentage Infection Relative to Appropriate DMSO Control with Avg Background Subtraction (SARS2; Exp 1 (SMW491), 1 uM): 161.72% and 144.95%
- Percentage Infection Relative to Appropriate DMSO Control with Avg Background Subtraction (SARS2; Exp 1 (SMW491), 5 uM): 118.41% and 120.39%
- Percentage Infection Relative to Appropriate DMSO Control with Avg Background Subtraction (SARS2; Exp 1 (SMW491), 10 uM): 125.55% and 160.68%
- Percentage Infection Relative to Appropriate DMSO Control with Avg Background Subtraction (SARS2; Exp 1 (SMW491), 25 uM): 122.15% and 145.90%
- Percentage Infection Relative to Appropriate DMSO Control with Avg Background Subtraction (SARS2; Exp 1 (SMW491), 50 uM): 46.53% and 56.51%
- Percentage Infection Relative to Appropriate DMSO Control with Avg Background Subtraction (SARS2; Exp 2 (SMW492), 1 uM): 86.70% and 77.51%
- Percentage Infection Relative to Appropriate DMSO Control with Avg Background Subtraction (SARS2; Exp 2 (SMW492), 5 uM): 88.04% and 68.60%
- Percentage Infection Relative to Appropriate DMSO Control with Avg Background Subtraction (SARS2; Exp 2 (SMW492), 10 uM): 101.31% and 73.96%
- Percentage Infection Relative to Appropriate DMSO Control with Avg Background Subtraction (SARS2; Exp 2 (SMW492), 25 uM): 185.38% and 112.33%
- Percentage Infection Relative to Appropriate DMSO Control with Avg Background Subtraction (SARS2; Exp 2 (SMW492), 50 uM): 61.71% and 43.46%
- Percentage Inhibition Average 1 μM (SARS2): −17.72%
- Screening data (Relative infection to DMSO controls) Average 1 μM (SARS2): 117.72
- Percentage Inhibition Average 5 μM (SARS2): 1.14%
- Screening data (Relative infection to DMSO controls) Average 5 μM (SARS2): 98.86
- Percentage Inhibition Average 10 μM (SARS2): −15.37%
- Screening data (Relative infection to DMSO controls) Average 10 μM (SARS2): 115.37
- Percentage Inhibition Average 25 μM (SARS2): −41.44%
- Screening data (Relative infection to DMSO controls) Average 25 μM (SARS2): 141.44
- Percentage Inhibition Average 50 μM (SARS2): 47.95%
- Screening data (Relative infection to DMSO controls) Average 50 μM (SARS2): 52.05
- Average (relative infection to DMSO over the 5 tested concentrations) (SARS2): 105.09
- Infection Data, Average, Mean (SARS2; n 4, 1 uM): 117.72%
- Infection Data, Average, Mean (SARS2; n 4, 5 uM): 98.86%
- Infection Data, Average, Mean (SARS2; n 4, 10 uM): 115.37%
- Infection Data, Average, Mean (SARS2; n 4, 25 uM): 141.44%
- Infection Data, Average, Mean (SARS2; n 4, 50 uM): 52.05%

Structure (SMILES): COc1ccc(CNCCc2ccccc2F)c(OCC(O)CN2CCOCC2)c1 (stereo not shown) [SILCS49]
- Toxicity Data, Average, Mean (percentage relative to appropriate DMSO control) (cells (nuclei count); 1 uM): 104.43%
- Relative cell count to DMSO controls, Average 1 μM (cells (nuclei count)): 104.43
- Toxicity Data, Average, Mean (percentage relative to appropriate DMSO control) (cells (nuclei count); 5 uM): 113.44%
- Relative cell count to DMSO controls, Average 5 μM (cells (nuclei count)): 113.44
- Toxicity Data, Average, Mean (percentage relative to appropriate DMSO control) (cells (nuclei count); 10 uM): 120.89%
- Relative cell count to DMSO controls, Average 10 μM (cells (nuclei count)): 120.89
- Toxicity Data, Average, Mean (percentage relative to appropriate DMSO control) (cells (nuclei count); 25 uM): 115.31%
- Relative cell count to DMSO controls, Average 25 μM (cells (nuclei count)): 115.31
- Toxicity Data, Average, Mean (percentage relative to appropriate DMSO control) (cells (nuclei count); 50 uM): 98.89%
- Relative cell count to DMSO controls, Average 50 μM (cells (nuclei count)): 98.89
- Toxicity Data, Percentage Relative to Appropriate DMSO Control (cells (nuclei count); Exp 1 (SMW506), 1 uM): 91% and 100%
- Toxicity Data, Percentage Relative to Appropriate DMSO Control (cells (nuclei count); Exp 1 (SMW506), 5 uM): 103% and 110%
- Toxicity Data, Percentage Relative to Appropriate DMSO Control (cells (nuclei count); Exp 1 (SMW506), 10 uM): 111% and 115%
- Toxicity Data, Percentage Relative to Appropriate DMSO Control (cells (nuclei count); Exp 1 (SMW506), 25 uM): 109% and 115%
- Toxicity Data, Percentage Relative to Appropriate DMSO Control (cells (nuclei count); Exp 1 (SMW506), 50 uM): 97% and 101%
- Toxicity Data, Percentage Relative to Appropriate DMSO Control (cells (nuclei count); Exp 2 (SMW507), 1 uM): 111% and 116%
- Toxicity Data, Percentage Relative to Appropriate DMSO Control (cells (nuclei count); Exp 2 (SMW507), 5 uM): 115% and 126%
- Toxicity Data, Percentage Relative to Appropriate DMSO Control (cells (nuclei count); Exp 2 (SMW507), 10 uM): 124% and 133%
- Toxicity Data, Percentage Relative to Appropriate DMSO Control (cells (nuclei count); Exp 2 (SMW507), 25 uM): 112% and 125%
- Toxicity Data, Percentage Relative to Appropriate DMSO Control (cells (nuclei count); Exp 2 (SMW507), 50 uM): 91% and 107%
- Relative cell count to DMSO controls, Average (for correlation analysis) (cells (nuclei count)): 110.59
- Infection Data, Average, Mean percentage infection relative to DMSO control (SARS2; n=4, 1 uM): 90.24%
- Infection Data, Average, Mean percentage infection relative to DMSO control (SARS2; n=4, 5 uM): 54.75%
- Infection Data, Average, Mean percentage infection relative to DMSO control (SARS2; n=4, 10 uM): 29.10%
- Infection Data, Average, Mean percentage infection relative to DMSO control (SARS2; n=4, 25 uM): 27.11%
- Infection Data, Average, Mean percentage infection relative to DMSO control (SARS2; n=4, 50 uM): 13.54%
- Infection Data, Percentage Infection Relative to Appropriate DMSO Control (SARS2; Exp 1 (SMW506), 1 uM): 101.13% and 94.70%
- Infection Data, Percentage Infection Relative to Appropriate DMSO Control (SARS2; Exp 1 (SMW506), 5 uM): 55.30% and 50.40%
- Infection Data, Percentage Infection Relative to Appropriate DMSO Control (SARS2; Exp 1 (SMW506), 10 uM): 38.04% and 34.18%
- Infection Data, Percentage Infection Relative to Appropriate DMSO Control (SARS2; Exp 1 (SMW506), 25 uM): 27.25% and 33.31%
- Infection Data, Percentage Infection Relative to Appropriate DMSO Control (SARS2; Exp 1 (SMW506), 50 uM): 9.17% and 7.35%
- Infection Data, Percentage Infection Relative to Appropriate DMSO Control (SARS2; Exp 2 (SMW507), 1 uM): 67.31% and 97.84%
- Infection Data, Percentage Infection Relative to Appropriate DMSO Control (SARS2; Exp 2 (SMW507), 5 uM): 52.91% and 60.38%
- Infection Data, Percentage Infection Relative to Appropriate DMSO Control (SARS2; Exp 2 (SMW507), 10 uM): 23.33% and 20.87%
- Infection Data, Percentage Infection Relative to Appropriate DMSO Control (SARS2; Exp 2 (SMW507), 25 uM): 29.98% and 17.91%
- Infection Data, Percentage Infection Relative to Appropriate DMSO Control (SARS2; Exp 2 (SMW507), 50 uM): 19.58% and 18.05%
- Percentage Inhibition Average 1 μM (SARS2): 9.76%
- Screening data (Relative infection to DMSO controls) Average 1 μM (SARS2): 90.24
- Percentage Inhibition Average 5 μM (SARS2): 45.25%
- Screening data (Relative infection to DMSO controls) Average 5 μM (SARS2): 54.75
- Percentage Inhibition Average 10 μM (SARS2): 70.90%
- Screening data (Relative infection to DMSO controls) Average 10 μM (SARS2): 29.10
- Percentage Inhibition Average 25 μM (SARS2): 72.89%
- Screening data (Relative infection to DMSO controls) Average 25 μM (SARS2): 27.11
- Percentage Inhibition Average 50 μM (SARS2): 86.46%
- Screening data (Relative infection to DMSO controls) Average 50 μM (SARS2): 13.54
- Average (relative infection to DMSO over the 5 tested concentrations) (SARS2): 42.95
